Assay results published in patent publication US8569259B2, “Adenosine analogs and their use” (Microdose Therapeutx, Inc., priority 2006, dated 2013).
pEC50: −log10 of the molar value. Like-named read-outs stand apart in the source and are kept apart here.

Experiments:
P2Y2 receptor = target: T1, P2Y2 receptor (Homo sapiens, UniProt P41231); assay: IP1 accumulation assay (kit IP-one HTRF); format: cell-based
T1 construct: host or cells: cells not identified for the IP1 assay
Method: The compounds described herein may be tested for their ability to elicit P2Y2 receptor activity using in vitro IP1 accumulation, intracellular calcium mobilization, mucus production and ciliary beat frequency assays, ex vivo Short Current Circuit and fluid transport assays for P2Y2 and other P2Y receptor activity assays, as described below.
Cells in midlog phase are collected with PBS-EDTA, washed and resuspended in medium without antibiotics at a concentration of 2×10^5 cells/ml. Cells (200 μL or 40.000 cells) are then distributed into a 96 well plate (Cellstar, Greiner, 655083). The plate is incubated overnight at 37° C. in a cell culture incubator. The next morning, the medium is removed and replaced by 50 μL of agonist diluted in the stimulation buffer provided with the kit IP-one (CisBio, 621P1PEB). The plate is incubated for 1 h at 37° C. in a cell culture incubator. 25 μL of the antibody diluted in lysis buffer is then added to each well. 25 μL of the IP1-d2 diluted in lysis buffer is added to each well and the plate is incubated for 1 h. at room temperature. The plate is then read on a Rubystar and dose-response curves are generated by plotting the ligand concentrations versus the DeltaF ratio.
EC50 values for certain compounds were obtained through an IP1 accumulation assay (kit IP-one HTRF), as described above.

male Balb/C mice [1] = assay: Gastric retention and small intestine transit, 30 min after Tc-sulfur colloid meal; format: in vivo; details: 30 min after meal, tegaserod 0.1 mg/kg ip, lubiprostone 0.1 mg/kg oral, compound C 50 mg/kg oral; for geometric center (GC) of the small intestine: 1-way ANOVA or Student's t-test, FIG. 3; for stomach retention, percentage of total radioactivity left in the stomach: FIG. 5
Method: Male Balb/C mice were fasted overnight with free access to water. Water was then removed for 30 minutes. Each mouse was subsequently gavaged a liquid meal of 0.5% methylcellulose (weight-to-volume w/v) and 10% corn oil (volume-to-volume v/v) in water containing 5-10 μCi of an non-absorbable Tc-sulfur colloid radioactive marker as well as compound C at doses between 2 and 50 mg/kg (10 mL/kg), or lubiprostone at 100 μg/kg. A group was dosed with tegaserod (100 μg/kg) injected ip just prior to receiving vehicle by oral gavage. Control animals received vehicle only. Animals were euthanized 30 minutes after dosing and their GI tract was excised from the stomach down. The stomach was counted alone. The small intestine was extended and cut into 10 equally sized pieces, labeled 1 to 10 from stomach to caecum. Each piece of the small intestine, and the stomach, were counted for radioactivity. The geometric center (GC) of the small intestine was calculated according to GC=(Σ(i×Ci))/(ΣCi), where i is the label of the segment (from 1 to 10) and Ci is the number of counts. GC is a number between 1 and 10. The closer GC is to 10, the faster the small intestinal transit. Gastric retention was calculated as percent of total dose counted. GC's and gastric retentions were compared between dose and vehicle groups using a Student's t-test. A P-value of less than 0.05 was considered statistically significant, as depicted in FIGS. 3-5.

male Balb/C mice [2] = assay: Large intestine transit, 2.5 hr after Tc-sulfur colloid meal; format: in vivo; details: 2.5 hr after meal; for gastric retention (percentage of total radioactivity left in stomach): compound C up to 50 mg/kg oral, lubiprostone 0.1 mg/kg oral, FIG. 6
Method: Male Balb/C mice were fasted overnight with free access to water. Water was then removed for 30 min. Each mouse was subsequently gavaged a liquid meal of 0.5% methylcellulose (weight-to-volume w/v) and 10% corn oil (volume-to-volume v/v) in water containing 5-10 μCi of an non-absorbable Tc-sulfur colloid radioactive marker containing the compound C at doses of 5, 10 and 50 mg/kg (10 mL/kg), or lubiprostone at 100 μg/kg. A group was dosed with tegaserod (100 μg/kg) injected ip just prior to receiving vehicle by oral gavage. Control animals received vehicle only. Animals were kept for 30 minutes in empty cages then given access to food and water at libitum. They were euthanized 2.5 hours after dosing and their GI tract was excised from the stomach down. The stomach and small intestine were counted alone. The large intestine was extended and cut into 3 equally sized pieces, labeled 1 to 3 from caecum to rectum. Each section was counted individually. Feces, labeled 4, were collected, weighed, and counted. The geometric center (GC) of the large intestine/feces portion of the GI tract was calculated according to GC=(Σ(i×Ci))/(ΣCi), where i is the label of the segment (from 1 to 4) and Ci is the number of counts. GC is a number between 1 and 4. The closer GC is to 4, the faster the intestinal transit. Between 7 and 12 mice were used for each dose group. Gastric retention was calculated as percent of total dose counted. Gastric retentions between compound-dosed and vehicle-dosed animals were compared using a one-way ANOVA test and a Dunnett post-test. GC's and feces weights were compared between compound- and vehicle-dosed animals using a similar statistical methodology. In all cases, a P-value of less than 0.05 was considered statistically significant.

male Balb/C mice [3] = assay: Total gastrointestinal transit, carmine red dye meal, time to first red pellet and feces weight; format: in vivo; details: oral gavage 5 and 50 mg/kg
Method: Briefly, mice were administered a meal containing a non-absorbable red dye (carmine) and were monitored for 3 hours. Feces were collected and time of expulsion was recorded. Feces were weighed fresh and again after overnight drying. Time to first red-colored feces was used as a measure of total GI transit time. Total weight of wet and dry feces was used as a measure of fluid secretion.
Male Balb/C mice were fasted overnight with free access to water. They were then given access to food and water for 30 minutes. They were finally moved to empty plastic cages with no access to food or water. After 1 hour, each mouse was fed a liquid meal of 0.5% methylcellulose (weight-to-volume w/v) in water containing 3% carmine dye (w/v) as well as doses of the test compound at 5 and 50 mg/kg (10 mL/kg) with a gavage needle. Control animals received vehicle only. Each animal was held in an individual cage for the following 3 hours. The expulsion time of each feces was recorded to the nearest 5 seconds. Each feces was placed in a tared vial and the vial was capped. Fresh feces were weighed and the vials were kept uncapped overnight at 37° C. The feces were then weighed again. Average times to first red-colored feces for vehicle- and compound-dosed animals were compared using a Student's t-test (two-sided, unequal variance). A P-value of 0.05 or less was considered statistically significant. […]

[4] = X = compound falls in class +, read-out: EC50, class + (>1000 nM)
[5] = compound falls in class +++, read-out: EC50, class +++ (<500 nM)

T1 sequence (P41231 whole entry): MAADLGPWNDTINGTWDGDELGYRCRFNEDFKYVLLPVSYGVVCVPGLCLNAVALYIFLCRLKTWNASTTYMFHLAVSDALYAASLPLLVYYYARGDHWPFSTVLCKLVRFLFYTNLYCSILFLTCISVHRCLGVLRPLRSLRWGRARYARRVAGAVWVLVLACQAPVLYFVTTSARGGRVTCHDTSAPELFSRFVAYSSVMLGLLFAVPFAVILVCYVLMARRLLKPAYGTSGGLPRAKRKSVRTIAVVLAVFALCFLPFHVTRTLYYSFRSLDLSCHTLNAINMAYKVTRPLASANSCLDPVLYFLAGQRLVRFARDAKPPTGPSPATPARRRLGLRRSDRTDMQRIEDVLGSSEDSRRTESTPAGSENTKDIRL

SMILES	pEC50 (P2Y2 receptor; [4])	pEC50 (P2Y2 receptor; [5])	geometric center (GC) of the small intestine (male Balb/C mice [1])	stomach retention, percentage of total radioactivity left in the stomach (male Balb/C mice [1])	further results
COc1ccc(O[C@@H]2O[C@H](COP(=O)(O)OP(=O)(O)OP(=O)(O)OC[C@H]3O[C@@H](n4cnc5c(=N)n(C)cnc54)[C@H](O)[C@@H]3O)[C@@H](O)[C@H]2O)cc1 [Compound E]	< 6.00				
CNc1c2ncn([C@@H]3O[C@H](COP(=O)(O)OP(=O)(O)OP(=O)(O)OP(=O)(O)OC[C@H]4O[C@@H](Oc5ccc(OC)cc5)[C@H](O)[C@@H]4O)[C@@H](O)[C@H]3O)c2nc[n+]1C [Compound D]		> 6.30			
COc1ccc(O[C@@H]2O[C@H](COP(=O)(O)OP(=O)(O)OP(=O)(O)OP(=O)(O)OC[C@H]3O[C@@H](n4cnc5c(=N)n(C)cnc54)[C@H](O)[C@@H]3O)[C@@H](O)[C@H]2O)cc1 [Compound C]		> 6.30	No statistical significance was observed	No statistical significance was found	gastric retention (percentage of total radioactivity left in stomach) (male Balb/C mice [2]): virtually no effect on gastric retention; geometric center (GC) of the large intestine and feces (male Balb/C mice [2]; oral 5, 10 and 50 mg/kg, FIG. 7): calculated large intestine geometric center increases with increasing dose; percentage of total radioactivity found in the feces (male Balb/C mice [2]; oral 5, 10 and 50 mg/kg, FIG. 8): dose-dependent increase of % total radioactivity starting at 5 mg/kg dose at a percentage equivalent to that obtained with lubiprostone and tegaserod; dose with statistically significant effect on large intestine transit (male Balb/C mice [2]; oral, P<0.05 vs vehicle): ≥ 10 mg/kg; geometric center (GC) of the large intestine, effect compared with reference drugs (male Balb/C mice [2]; compound C 5 mg/kg oral): equivalent to that obtained with doses of lubiprostone (0.1 mg/kg) and tegaserod (0.1 mg/kg); total weight of feces (wet, dry) and water content produced during 3 hours (male Balb/C mice [3]; 3 hrs after dosing, FIG. 2): dose-dependent increase in wet, and dry feces, as well as in water content; time to first red-colored feces (total GI transit time) (male Balb/C mice [3]; vs vehicle, FIG. 1): time to first red pellet decreases with increasing dose
CCCCC(F)(F)[C@@]1(O)CC[C@H]2[C@@H](CC(=O)[C@@H]2CCCCCCC(=O)O)O1 [lubiprostone]			No statistical significance was observed	No statistical significance was found	gastric retention (percentage of total radioactivity left in stomach) (male Balb/C mice [2]): significant delay in gastric emptying
COc1ccc(O[C@@H]2O[C@H](COP(=O)(O)OP(=O)(O)OP(=O)(O)OP(=O)(O)OC[C@H]3O[C@@H](c4c[nH]c(=O)[nH]c4=O)[C@H](O)[C@@H]3O)[C@@H](O)[C@H]2O)cc1 [Compound N]					pEC50 (P2Y2 receptor; X in this column = compound falls in class ++, read-out: EC50, class ++ (500-1000 nM)): 6.00 to 6.30
[H]/N=C(/NCCCCC)N/N=C/c1c[nH]c2ccc(OC)cc12 [tegaserod]			No statistical significance was observed	statistically significance for tegaserod versus vehicle using Student's t-test	

Continued, in another order:

pEC50 (P2Y2 receptor; [4])	pEC50 (P2Y2 receptor; [5])	SMILES	geometric center (GC) of the small intestine (male Balb/C mice [1])	stomach retention, percentage of total radioactivity left in the stomach (male Balb/C mice [1])	further results
	> 6.30	Cn1cnc2c(ncn2[C@@H]2O[C@H](COP(=O)(O)OP(=O)(O)OP(=O)(O)O)[C@@H](O)[C@H]2O)c1=N [Compound P, 1-Methyl-Adenosine-5′-triphosphate]			
< 6.00		COc1ccc(N(C)C[C@@H]2O[C@H](COP(=O)(O)OP(=O)(O)OP(=O)(O)O)[C@@H](O)[C@H]2O)cc1 [Compound J, ((2R,3S,4R)-3,4-dihydroxy-5-(((4-methoxyphenyl)(methyl)amino)methyl)tetrahydrofuran-2-yl)methyltriphosphoric acid]			
< 6.00		O=P(O)(O)OP(=O)(O)OP(=O)(O)OC[C@H]1O[C@@H](Oc2cccnc2)[C@H](O)[C@@H]1O [Compound M, 3-Pyridyl-β-D-ribofuranosid-5′-triphosphate]			
< 6.00		O=P(O)(O)OP(=O)(O)OP(=O)(O)OC[C@H]1O[C@@H](CNc2cccnc2)[C@H](O)[C@@H]1O [Compound K, ((2R,3S,4R,5S)-3,4-Dihydroxy-5-((pyridin-3-ylamino)methyl)tetrahydrofuran-2-yl)methyltriphosphoric acid]			
